# Target: T1, human IGF-1R (Homo sapiens, UniProt P08069)
# T1 construct: human IGF-1R, amino acids 954-1367 expressed by baculovirus in Sf21 cells; GST (C); purchased Cell Signaling Technology; host or cells: baculovirus in Sf21 cells
# Experiment: IGF-1R homogenous time-resolved fluorescence (HTRF) in vitro kinase assay
# Format: biochemical
# Conditions: recombinant GST-tagged human IGF-1R aa 954-1367; ATP 50 μM; 60 minutes at room temperature
# Protocol: IGF-1R kinase activity was assayed by a homogenous time-resolved fluorescence (HTRF) in vitro kinase assay (Mathis, G., HTRF(R) Technology. J Biomol Screen, 1999. 4(6): p. 309-314). Specifically, 10 μL C-terminal GST-tagged, recombinant, human IGF-1R, amino acids 954-1367 expressed by baculovirus in Sf21 cells (Cell Singaling Technology) was mixed with 10 μL inhibitor (various concentrations, 2% final DMSO) and 10 μL of ATP (50 μM final concentration) in reaction buffer (50 mM HEPES, pH 7.5, 10 mM MgCl2, 2 mM MnCl2, 0.1% BSA and 1 mM DTT, 40 μL final volume). The reaction was initiated by addition of 10 μL of biotinylated peptide substrate (Biotin-Ahx-[…], 0.5 μM final concentration) in a black 384-well plate (Packard). […] The quenched reaction was allowed to stand at room temperature for 1 hour and then read in a time-resolved fluorescence detector (Envision, Perkin Elmer) at 615 nm and 665 nm simultaneously. The ratio between the signal of 615 nm and 665 nm was used in the calculation of the IC50.
# T1 sequence (P08069 954-1367): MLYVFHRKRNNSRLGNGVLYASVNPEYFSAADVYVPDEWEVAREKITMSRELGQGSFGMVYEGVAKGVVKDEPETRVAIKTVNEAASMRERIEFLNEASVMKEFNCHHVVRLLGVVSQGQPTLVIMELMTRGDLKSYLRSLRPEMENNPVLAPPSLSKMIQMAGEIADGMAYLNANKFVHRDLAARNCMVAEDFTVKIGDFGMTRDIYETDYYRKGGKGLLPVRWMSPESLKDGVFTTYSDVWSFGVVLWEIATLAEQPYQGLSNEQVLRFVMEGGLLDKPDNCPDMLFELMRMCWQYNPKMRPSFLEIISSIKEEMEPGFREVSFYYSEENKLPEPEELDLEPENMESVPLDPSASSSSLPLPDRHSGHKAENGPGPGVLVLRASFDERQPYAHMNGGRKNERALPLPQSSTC
row,Compound,IC50
1,"COc1cc(N2CCC(N(C)C)CC2)ccc1Nc1ncc(Br)c(Nc2cc3cn[nH]c3cc2SC(C)C)n1 [Example 24, 5-bromo-N^2-{4-[4-(dimethylamino)piperidin-1-yl]-2-methoxyphenyl}-N^4-[6-(isopropylthio)-1H-indazol-5-yl]pyrimidine-2,4-diamine]",10 to 50 nM
2,"COc1cc(N2CCC(N3CCN(C)CC3)CC2)ccc1Nc1ncc(Br)c(Nc2ccc3[nH]ncc3c2)n1 [Example 13, 5-bromo-N^4-1H-indazol-5-yl-N^2-{2-methoxy-4-[4-(4-methylpiperazin-1-yl)piperidin-1-yl]phenyl}pyrimidine-2,4-diamine]",10 to 50 nM
3,"CNC(=O)c1cc2c(cnn2C)cc1Nc1nc(Nc2ccc(N3CCOCC3)cc2OC)ncc1Br [Example 41, 5-({5-bromo-2-[(2-methoxy-4-morpholin-4-ylphenyl)amino]pyrimidin-4-yl}amino)-N,1-dimethyl-1H-indazole-6-carboxamide]",10 to 50 nM
4,"COc1cc(N2CCC(N(C)C)CC2)ccc1Nc1ncc(Br)c(Nc2cc3cn(C)nc3cc2S(=O)(=O)C(C)C)n1 [Example 29, 5-bromo-N^2-{4-[4-(dimethylamino)piperidin-1-yl]-2-methoxyphenyl}-N^4-[6-(isopropylsulfonyl)-2-methyl-2H-indazol-5-yl]pyrimidine-2,4-diamine]",101 to 500 nM
5,"COc1cc(N2CCC(N3CCN(C)CC3)CC2)ccc1Nc1ncc(Br)c(Nc2ccc3nc(-c4ccccc4)ccc3c2)n1 [Example 47, 5-bromo-N^2-{2-methoxy-4-[4-(4-methylpiperazin-1-yl)piperidin-1-yl]phenyl}-N^4-(2-phenylquinolin-6-yl)pyrimidine-2,4-diamine]",> 500 nM
6,"COc1cc(N2CCC(N(C)C)CC2)ccc1Nc1ncc(Br)c(Nc2cc3cn[nH]c3cc2S(=O)(=O)C(C)C)n1 [Example 23, 5-bromo-N^2-{4-[4-(dimethylamino)piperidin-1-yl]-2-methoxyphenyl}-N^4-[6-(isopropylsulfonyl)-1H-indazol-5-yl]pyrimidine-2,4-diamine]",< 10 nM
7,"CCN1CCN(c2ccc(Nc3ncc(Br)c(Nc4ccc5[nH]c(CCc6ccccc6)nc5c4)n3)cc2)CC1 [Example 3, 5-bromo-N^2-[4-(4-ethylpiperazin-1-yl)phenyl]-N^4-[2-(2-phenylethyl)-1H-benzimidazol-5-yl]pyrimidine-2,4-diamine]",> 500 nM
8,"CCS(=O)(=O)c1cc2c(cnn2C)cc1Nc1nc(Nc2ccc(N3CCS(=O)(=O)CC3)cc2)ncc1Br [Example 45, 5-bromo-N^2-[4-(1,1-dioxidothiomorpholin-4-yl)phenyl]-N^4-[6-(ethylsulfonyl)-1-methyl-1H-indazol-5-yl]pyrimidine-2,4-diamine]",51 to 100 nM
9,"CNC(=O)c1cc2c(cnn2C)cc1Nc1nc(Nc2ccc(N3CCC(N(C)C)CC3)cc2)ncc1Br [Example 38, 5-{[5-bromo-2-({4-[4-(dimethylamino)piperidin-1-yl]phenyl}amino)pyrimidin-4-yl]amino}-N,1-dimethyl-1H-indazole-6-carboxamide]",10 to 50 nM
10,"COc1cc(N2CCC(N3CCN(C)CC3)CC2)ccc1Nc1ncc(Br)c(Oc2ccc3cccnc3c2)n1 [Example 51, 5-bromo-N-{2-methoxy-4-[4-(4-methylpiperazin-1-yl)piperidin-1-yl]phenyl}-4-(quinolin-7-yloxy)pyrimidin-2-amine]",10 to 50 nM
11,"CCS(=O)(=O)c1cc2c(cnn2C)cc1Nc1nc(Nc2ccc(N3CCN(C(C)C)CC3)cc2OC)ncc1Br [Example 42, 5-bromo-N^4-[6-(ethylsulfonyl)-1-methyl-1H-indazol-5-yl]-N^2-[4-(4-isopropylpiperazin-1-yl)-2-methoxyphenyl]pyrimidine-2,4-diamine]",< 10 nM
12,"CCN1CCN(c2ccc(Nc3ncc(Br)c(Nc4cccc5[nH]c(C)nc45)n3)cc2)CC1 [Example 6, 5-bromo-N^2-[4-(4-ethylpiperazin-1-yl)phenyl]-N^4-(2-methyl-1H-benzimidazol-4-yl)pyrimidine-2,4-diamine]",> 500 nM
13,"COc1cc(N2CCOCC2)ccc1Nc1ncc(Br)c(Nc2cc3cnn(C)c3cc2S(C)(=O)=O)n1 [Example 40, 5-bromo-N^2-(2-methoxy-4-morpholin-4-ylphenyl)-N^4-[1-methyl-6-(methylsulfonyl)-1H-indazol-5-yl]pyrimidine-2,4-diamine]",10 to 50 nM
14,"CCN1CCN(c2ccc(Nc3ncc(Br)c(Nc4ccc5c(c4)ncn5Cc4ccccc4)n3)cc2)CC1 [Example 4, N^4-(1-benzyl-1H-benzimidazol-5-yl)-5-bromo-N^2-[4-(4-ethylpiperazin-1-yl)phenyl]pyrimidine-2,4-diamine]",101 to 500 nM

# From patent US8486933B2, “Pyrimidine inhibitors of kinase activity” (AbbVie Inc., priority 2009, dated 2013)
